Data published in PubChem BioAssay (NCI).
Several values for one entry are separate records, joined by “and”; a condition that tells them apart may be missing. Identical values can stand only once.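 Briefly, cells in 96-well plates were exposed to five compound concentrations for 48 h, and endpoints were estimated by linear interpolation. GI50: concentration for 50% inhibition of growth. TGI is the concentration that stops growth completely.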

Legend:
Assay in all cases: NCI-60 cell line screen, 48 h
U251 CNS = tested on: U251 CNS
OVCAR-3 ovarian = tested on: OVCAR-3 ovarian
LOX IMVI melanoma = tested on: LOX IMVI melanoma
SW-620 colon = tested on: SW-620 colon
OVCAR-4 ovarian = tested on: OVCAR-4 ovarian
TK-10 renal = tested on: TK-10 renal
HCT-15 colon = tested on: HCT-15 colon
SK-MEL-28 melanoma = tested on: SK-MEL-28 melanoma
T-47D breast = tested on: T-47D breast
NCI/ADR-RES ovarian = tested on: NCI/ADR-RES ovarian

CCOc1ccccc1Nc1nc(C)c(C(=O)CC(=O)C(=O)Nc2ccccc2)s1
TGI (U251 CNS): > 100 µM
TGI (OVCAR-3 ovarian): 63.3 µM
TGI (LOX IMVI melanoma): > 100 µM
TGI (SW-620 colon): > 100 µM
TGI (OVCAR-4 ovarian): > 100 µM
TGI (TK-10 renal): > 100 µM
TGI (HCT-15 colon): > 100 µM
TGI (SK-MEL-28 melanoma): > 100 µM

CC(C)(O)C1CC(=O)C(C)(C2C(O)CC3(C)C4CC=C5C(CCC(O)C5(C)C)C4(C)C(=O)CC23C)O1 (stereo not given)
TGI (U251 CNS): > 100 µM
TGI (OVCAR-3 ovarian): > 100 µM
TGI (LOX IMVI melanoma): > 100 µM
TGI (SW-620 colon): > 100 µM
TGI (OVCAR-4 ovarian): > 100 µM
TGI (TK-10 renal): > 100 µM
TGI (T-47D breast): > 100 µM
TGI (HCT-15 colon): > 100 µM
TGI (SK-MEL-28 melanoma): > 100 µM

CCCCCC1C2C(=O)NC(=O)C1C(=O)NC2=O (stereo not given)
TGI (OVCAR-3 ovarian): > 100 µM
TGI (LOX IMVI melanoma): > 100 µM
TGI (SW-620 colon): > 100 µM
TGI (OVCAR-4 ovarian): > 100 µM
TGI (TK-10 renal): > 100 µM
TGI (HCT-15 colon): > 100 µM
TGI (SK-MEL-28 melanoma): > 100 µM

Cc1cn2cc(-c3ccncc3)nc2s1
TGI (U251 CNS): > 100 µM
TGI (OVCAR-3 ovarian): > 100 µM
TGI (LOX IMVI melanoma): > 84.4 µM
TGI (SW-620 colon): > 100 µM
TGI (OVCAR-4 ovarian): > 100 µM
TGI (TK-10 renal): > 100 µM
TGI (HCT-15 colon): > 100 µM
TGI (SK-MEL-28 melanoma): > 100 µM

C[CH2][Ge]1([CH2]C)[CH2]CC2(CCN(CCCN(C)C)C2)C[CH2]1
GI50 (U251 CNS): 1.73 µM and 5.49 µM
TGI (U251 CNS): 3.69 µM and 9.77 µM
GI50 (NCI/ADR-RES ovarian): 1.83 µM and 5.51 µM
TGI (NCI/ADR-RES ovarian): 4.58 µM and 13.4 µM
GI50 (OVCAR-3 ovarian): 2.15 µM and 2.81 µM
TGI (OVCAR-3 ovarian): 4.99 µM and 6.87 µM
GI50 (SW-620 colon): 1.46 µM and 1.65 µM
TGI (SW-620 colon): 2.89 µM and 2.31 µM
GI50 (OVCAR-4 ovarian): 0.694 µM and 4.41 µM
TGI (OVCAR-4 ovarian): 6.79 µM and 11.6 µM
GI50 (TK-10 renal): 1.72 µM and 1.87 µM
TGI (TK-10 renal): 3.18 µM and 3.38 µM
GI50 (T-47D breast): 1.65 µM
TGI (T-47D breast): 3.25 µM
GI50 (HCT-15 colon): 1.07 µM and 1.51 µM
TGI (HCT-15 colon): 2.74 µM and 2.65 µM
GI50 (SK-MEL-28 melanoma): 1.34 µM and 1.79 µM
TGI (SK-MEL-28 melanoma): 2.71 µM and 3.27 µM

CC(=O)/C=C\C(=O)NNS(=O)(=O)c1ccc(C)cc1
TGI (U251 CNS): > 100 µM
TGI (OVCAR-3 ovarian): > 100 µM
TGI (LOX IMVI melanoma): > 100 µM
TGI (SW-620 colon): > 100 µM
TGI (OVCAR-4 ovarian): > 100 µM
TGI (TK-10 renal): > 100 µM
TGI (HCT-15 colon): > 100 µM
TGI (SK-MEL-28 melanoma): > 100 µM

COc1ccc2nccc(C3OC(=O)N4CCC(=O)CC34)c2c1 (stereo not given)
TGI (U251 CNS): > 100 µM
TGI (OVCAR-3 ovarian): > 100 µM
TGI (LOX IMVI melanoma): > 100 µM
TGI (SW-620 colon): > 100 µM
TGI (OVCAR-4 ovarian): > 100 µM
TGI (TK-10 renal): > 100 µM
TGI (HCT-15 colon): > 100 µM
TGI (SK-MEL-28 melanoma): > 100 µM

O=[N+]([O-])c1ccc(-c2ccc(C3=Nn4c(nnc4-c4ccc(Cl)cc4)SC3)o2)cc1
TGI (U251 CNS): > 70.7 µM
TGI (OVCAR-3 ovarian): > 100 µM
TGI (LOX IMVI melanoma): > 100 µM
TGI (SW-620 colon): > 100 µM
TGI (OVCAR-4 ovarian): > 100 µM
TGI (TK-10 renal): 53.4 µM
TGI (HCT-15 colon): > 100 µM
TGI (SK-MEL-28 melanoma): > 100 µM

Oc1ccc(-c2nc(-c3ccc4oc5ccc(-c6[nH]c(-c7ccc(O)cc7)nc6-c6ccccc6)cc5c4c3)c(-c3ccccc3)[nH]2)cc1
GI50 (U251 CNS): 2.93 µM
TGI (U251 CNS): 15 µM
GI50 (NCI/ADR-RES ovarian): 16 µM
TGI (NCI/ADR-RES ovarian): > 100 µM
GI50 (OVCAR-3 ovarian): 4.3 µM
TGI (OVCAR-3 ovarian): 15.2 µM
GI50 (SW-620 colon): 2.95 µM
TGI (SW-620 colon): 10.7 µM
GI50 (OVCAR-4 ovarian): 18 µM
TGI (OVCAR-4 ovarian): 96.9 µM
GI50 (TK-10 renal): 6.34 µM
TGI (TK-10 renal): 19.2 µM
GI50 (T-47D breast): 4.66 µM
TGI (T-47D breast): > 100 µM
GI50 (HCT-15 colon): 3.68 µM
TGI (HCT-15 colon): 29.1 µM
GI50 (SK-MEL-28 melanoma): 7.39 µM
TGI (SK-MEL-28 melanoma): 40 µM

Cc1ccc(S(=O)(=O)c2ccccn2)cc1
TGI (U251 CNS): > 100 µM
TGI (OVCAR-3 ovarian): > 100 µM
TGI (LOX IMVI melanoma): > 100 µM
TGI (SW-620 colon): > 100 µM
TGI (OVCAR-4 ovarian): > 100 µM
TGI (TK-10 renal): > 100 µM
TGI (HCT-15 colon): > 100 µM
TGI (SK-MEL-28 melanoma): > 100 µM

Cc1nn(-c2ccccc2)c2ncc3c(c12)C(=O)N(Cc1ccccc1)C3=O
GI50 (U251 CNS): 3.12 µM
TGI (U251 CNS): 14.2 µM
GI50 (NCI/ADR-RES ovarian): 4.46 µM
TGI (NCI/ADR-RES ovarian): > 100 µM
GI50 (OVCAR-3 ovarian): 3.31 µM
TGI (OVCAR-3 ovarian): 9.84 µM
GI50 (LOX IMVI melanoma): 4.58 µM
TGI (LOX IMVI melanoma): > 100 µM
GI50 (SW-620 colon): > 100 µM
TGI (SW-620 colon): > 100 µM
GI50 (OVCAR-4 ovarian): 2.18 µM
TGI (OVCAR-4 ovarian): 5.48 µM
GI50 (T-47D breast): 4.86 µM
TGI (T-47D breast): 20.7 µM
GI50 (HCT-15 colon): > 100 µM
TGI (HCT-15 colon): > 100 µM
GI50 (SK-MEL-28 melanoma): > 100 µM
TGI (SK-MEL-28 melanoma): > 100 µM

COc1cc(OC)c(-c2oc3ccccc3c(=O)c2O)c(OC)c1
TGI (U251 CNS): > 100 µM
TGI (NCI/ADR-RES ovarian): 5.05 µM
TGI (LOX IMVI melanoma): > 100 µM
TGI (SW-620 colon): > 100 µM
TGI (TK-10 renal): > 100 µM
TGI (T-47D breast): > 100 µM
TGI (HCT-15 colon): > 100 µM
TGI (SK-MEL-28 melanoma): > 100 µM

COC(=O)[C@@H](C)C[C@H](Cc1ccccc1)NC(=O)c1cccc([C@@H](C[C@H](C(C)C)N(C)C(=O)[C@@H](NC(=O)[C@H]2CCCCN2C)C(C)C)OC(C)=O)n1
GI50 (U251 CNS): < 0.00167 µM
TGI (U251 CNS): > 16.7 µM
GI50 (NCI/ADR-RES ovarian): 0.152 µM
TGI (NCI/ADR-RES ovarian): > 5.17 µM
GI50 (OVCAR-3 ovarian): < 0.00167 µM
TGI (OVCAR-3 ovarian): 0.00268 µM
GI50 (LOX IMVI melanoma): 0.00495 µM
TGI (LOX IMVI melanoma): > 16.7 µM
GI50 (SW-620 colon): < 0.00167 µM
TGI (SW-620 colon): > 16.7 µM
GI50 (OVCAR-4 ovarian): 0.00477 µM
TGI (OVCAR-4 ovarian): > 16.7 µM
TGI (TK-10 renal): > 16.7 µM
GI50 (HCT-15 colon): 0.00507 µM
TGI (HCT-15 colon): > 16.7 µM

O=C(Nc1cccc(Cl)c1)c1cc2cc(N=Nc3ccc(Br)cc3)ccc2oc1=O
TGI (U251 CNS): > 100 µM
TGI (OVCAR-3 ovarian): > 100 µM
TGI (LOX IMVI melanoma): 45.1 µM
TGI (SW-620 colon): > 100 µM
TGI (OVCAR-4 ovarian): 88.7 µM
TGI (TK-10 renal): > 100 µM
TGI (HCT-15 colon): > 100 µM
TGI (SK-MEL-28 melanoma): > 100 µM

O=C(/C=C\c1ccc(Cl)c(Cl)c1)c1ccccc1
GI50 (U251 CNS): 3.34 µM
TGI (U251 CNS): 15.6 µM
GI50 (NCI/ADR-RES ovarian): 5.49 µM
TGI (NCI/ADR-RES ovarian): 26.4 µM
GI50 (OVCAR-3 ovarian): 6.34 µM
TGI (OVCAR-3 ovarian): 18.9 µM
GI50 (LOX IMVI melanoma): 2.07 µM
TGI (LOX IMVI melanoma): 4.48 µM
GI50 (SW-620 colon): 2.21 µM
TGI (SW-620 colon): 5.52 µM
GI50 (OVCAR-4 ovarian): 8.83 µM
TGI (OVCAR-4 ovarian): 21.3 µM
GI50 (HCT-15 colon): 2.84 µM
TGI (HCT-15 colon): 10.3 µM
GI50 (SK-MEL-28 melanoma): 13.9 µM
TGI (SK-MEL-28 melanoma): 27.3 µM

COc1cccc2c1C(=N)c1c(O)c3c(c(O)c1C2=O)C[C@@](O)(C(C)=O)C[C@@H]3OC1CC(N)C(O)C(C)O1 (stereo not given in full)
GI50 (NCI/ADR-RES ovarian): 0.466 µM
TGI (OVCAR-3 ovarian): 5.43 µM and 4.73 µM and 13 µM
TGI (SW-620 colon): 4.39 µM and 8.73 µM and 10.5 µM
TGI (OVCAR-4 ovarian): 7.58 µM and 7.84 µM and 8 µM
GI50 (TK-10 renal): 0.234 µM
TGI (TK-10 renal): 3.7 µM and 2.02 µM
GI50 (T-47D breast): 0.0174 µM
TGI (T-47D breast): 4.86 µM
TGI (HCT-15 colon): 28 µM and 32.8 µM
TGI (SK-MEL-28 melanoma): 5.83 µM and 13.7 µM and 20.1 µM

COc1ccc(C2CC(c3ccc(OC)c(OC)c3)=NN2C(=O)c2cc(OC)c(OC)c(OC)c2)cc1 (stereo not given)
GI50 (U251 CNS): 2.53 µM
TGI (U251 CNS): > 100 µM
GI50 (NCI/ADR-RES ovarian): 0.95 µM
TGI (NCI/ADR-RES ovarian): 6.02 µM
GI50 (LOX IMVI melanoma): 2.47 µM
TGI (LOX IMVI melanoma): > 100 µM
GI50 (SW-620 colon): 3.7 µM
TGI (SW-620 colon): > 100 µM
GI50 (OVCAR-4 ovarian): > 23.8 µM
TGI (OVCAR-4 ovarian): > 100 µM
GI50 (TK-10 renal): 5.26 µM
TGI (TK-10 renal): > 100 µM
GI50 (T-47D breast): 2.3 µM
TGI (T-47D breast): > 100 µM
GI50 (HCT-15 colon): 1.76 µM
TGI (HCT-15 colon): > 100 µM
GI50 (SK-MEL-28 melanoma): 68.5 µM
TGI (SK-MEL-28 melanoma): > 100 µM

C[As](C)SCC(COC(=O)c1ccccc1)OC(=O)c1ccccc1 (stereo not given)
GI50 (U251 CNS): 1.71 µM
TGI (U251 CNS): 6.67 µM
GI50 (NCI/ADR-RES ovarian): 0.152 µM
TGI (NCI/ADR-RES ovarian): 0.367 µM
TGI (OVCAR-3 ovarian): 0.023 µM
GI50 (SW-620 colon): 0.0314 µM
TGI (SW-620 colon): 1.66 µM
GI50 (OVCAR-4 ovarian): 1.74 µM
TGI (OVCAR-4 ovarian): > 32.2 µM
GI50 (TK-10 renal): 0.0159 µM
TGI (TK-10 renal): 0.126 µM
GI50 (T-47D breast): 0.0452 µM
TGI (T-47D breast): 3.84 µM
GI50 (HCT-15 colon): 0.0357 µM
TGI (HCT-15 colon): 1.4 µM
GI50 (SK-MEL-28 melanoma): 0.504 µM
TGI (SK-MEL-28 melanoma): 17.4 µM
